Laboratory results: ChEMBL document CHEMBL1139223, “Isofagomine- and 2,5-anhydro-2,5-imino-D-glucitol-based glucocerebrosidase pharmacological chaperones for Gaucher disease intervention” (J Med Chem, 2007)
pIC50: −log10 of the molar value.

Assays:
[1] = molecular target: T1, Lysosomal acid glucosylceramidase (Homo sapiens, UniProt P04062); assay: Inhibition of glucocerebrosidase
T1 sequence (P04062 whole entry): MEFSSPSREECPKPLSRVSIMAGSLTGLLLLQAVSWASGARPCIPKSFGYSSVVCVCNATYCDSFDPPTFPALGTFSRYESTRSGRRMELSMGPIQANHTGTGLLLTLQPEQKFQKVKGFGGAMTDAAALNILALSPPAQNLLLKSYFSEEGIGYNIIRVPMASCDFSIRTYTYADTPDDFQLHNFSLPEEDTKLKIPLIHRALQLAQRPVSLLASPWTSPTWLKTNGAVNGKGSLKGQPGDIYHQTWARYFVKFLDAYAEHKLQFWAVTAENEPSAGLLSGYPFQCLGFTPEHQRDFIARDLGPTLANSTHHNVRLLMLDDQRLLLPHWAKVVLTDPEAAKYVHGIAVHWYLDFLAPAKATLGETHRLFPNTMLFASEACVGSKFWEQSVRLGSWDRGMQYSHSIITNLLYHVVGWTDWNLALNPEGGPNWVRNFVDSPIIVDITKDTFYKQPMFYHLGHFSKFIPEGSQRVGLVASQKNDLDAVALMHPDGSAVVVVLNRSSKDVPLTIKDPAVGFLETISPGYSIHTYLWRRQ

[2] = test system: L444P; assay: Increase in non-lysosomal activity of glucocerebrosidase […] mutant in human L444P cells at 150 uM relative to Conduritol B epoxide; assay type: cell-based
[3] = molecular target: T2, Lysosomal acid glucosylceramidase (Homo sapiens) (UniProt P04062); assay: Increase in non-lysosomal activity of glucocerebrosidase N370S mutant in human L444P cells at 75 uM relative to Conduritol B epoxide; assay type: cell-based
T2 sequence (whole entry): T1 sequence (P04062 whole entry)

[4] = molecular target: T2, Lysosomal acid glucosylceramidase (Homo sapiens); assay: Increase in non-lysosomal activity of glucocerebrosidase N370S mutant in human L444P cells at 50 uM relative to Conduritol B epoxide; assay type: cell-based
[5] = molecular target: T2, Lysosomal acid glucosylceramidase (Homo sapiens); assay: Increase in non-lysosomal activity of glucocerebrosidase N370S mutant in human L444P cells at 20 uM relative to Conduritol B epoxide; assay type: cell-based
[6] = test system: L444P; assay: Increase in non-lysosomal activity of glucocerebrosidase […] mutant in human L444P cells at 50 uM relative to Conduritol B epoxide; assay type: cell-based
[7] = molecular target: T2, Lysosomal acid glucosylceramidase (Homo sapiens); assay: Increase in non-lysosomal activity of glucocerebrosidase N370S mutant in human L444P cells at 30 uM relative to Conduritol B epoxide; assay type: cell-based
[8] = test system: L444P; assay: Increase in non-lysosomal activity of glucocerebrosidase […] mutant in human L444P cells at 20 uM relative to Conduritol B epoxide; assay type: cell-based

Row | pIC50 [1] | Activity [3] | Activity [4] | Activity [5] | Activity [7] | SMILES | Activity [2] | Activity [6] | Activity [8]
1 | 4.03 | 2.3 | – | – | – | O=C(CCCCCN1C[C@H](CO)[C@@H](O)[C@H](O)C1)NC12CC3CC(CC(C3)C1)C2 | 5.1 | – | –
2 | 4.74 | 2.5 | – | – | – | O=C(CCCN1C[C@H](CO)[C@@H](O)[C@H](O)C1)NC12CC3CC(CC(C3)C1)C2 | 7 | – | –
3 | 4.96 | – | 1.9 | – | – | O=C(CCCCN1C[C@H](CO)[C@@H](O)[C@H](O)C1)NC12CC3CC(CC(C3)C1)C2 | 7.2 | – | –
4 | 3.41 | – | – | 1.4 | – | O=C(CCCCN1[C@H](CO)[C@@H](O)[C@H](O)[C@@H]1CO)NC12CC3CC(CC(C3)C1)C2 | – | 2.2 | –
5 | 3.29 | – | – | – | 2.2 | O=C(CCCN1[C@H](CO)[C@@H](O)[C@H](O)[C@@H]1CO)NC12CC3CC(CC(C3)C1)C2 | – | – | 1.6
